Like-named read-outs stand apart in the source and are kept apart here.
Experiments:
[1] = tested on: polar transport of indol-3yl-acetic acid; conditions: 4-6 h; stimulation of basipetal, inhibition of acropetal transport; cited from earlier work
[2] = tested on: P. expansum; conditions: in vitro, agarized apple juice medium; cited from earlier work
[3] = tested on: P. expansum; set-up: reduction of lesion diameters: concentration or dose not given beside the values; conditions: cited from earlier work; for reduction of lesion diameters: apples Golden Delicious, 16° C. in the dark; for patulin accumulation in apples: in vivo, lesions analyzed by HPLC after 14 days
[4] = tested on: cyp705a5 mutant phenotype; conditions: 15 μM in the growth medium; cited from earlier work
[5] = tested on: cress seedlings; conditions: biphasic, dose dependent; cited from earlier work
[6] = tested on: cut seed potatoes; conditions: cited from earlier work
[7] = tested on: Fusarium; conditions: about 0.60 to 0.70 mg per 100 g dry weight accumulated in the testa of ant18 mutants
[8] = tested on: Barley (Hordeumvulgare L.) seeds; conditions: cited from earlier work
[9] = tested on: dihydrotlavonol 4-reductase (DFR); conditions: grape cell cultures, addition of compound; cited from earlier work
[10] = tested on: white potato tissue; conditions: biphasic, dose dependent; cited from earlier work
[11] = tested on: vacuolar membrane (H+-ATPase and H+-pyrophosphatase), slow vacuolar (SV) channel; conditions: cited from earlier work
[12] = low-grade seeds soaked in aqueous 10^-4 M

Row | Compound | polarity of the transport of indol-3yl-acetic acid [1] | fungal growth [2] | reduction of patulin accumulation [2] [%] | reduction of lesion diameters ([3]; after 6 days of incubation) [%] | reduction of lesion diameters ([3]; after 10 days of incubation) [%] | reduction of lesion diameters ([3]; after 14 days of incubation) [%] | patulin accumulation in apples [3] | also measured
1 | COc1cc(/C=C/C(=O)O)ccc1O [ferulic acid] | increased | – | – | – | – | – | – | –
2 | O=c1ccc2ccc(O)cc2o1 [umbelliferone, reference compound] | – | no inhibition | 53 | 100 | 68 | 38 | no reduction | –
3 | O=C1/C(=C/c2ccc(O)c(O)c2)Oc2cc(O)ccc21 [sulfuretin] | increased | – | – | – | – | – | – | –
4 | O=C1c2c(O)cc(O)cc2OC(c2ccc(O)c(O)c2)C1O (stereo not drawn) [Dihydroquercetin (taxifolin)] | increased | no inhibition | 48 | 97 | 71 | 27 | no reduction | phenotype restored, of the wild type gravity response [4]: ≥ 100%; root growth of cress seedlings [5]: increased; fungal mold growth on treated seed pieces ([6]; incubated in a controlled environment): adequately retarded; thickness of the suberized layer formed below the cut surface ([6]; treated seed potato tissue): increases; resistance of seeds to Fusarium infection [7]: extraordinary resistance; activity of ascorbate peroxidase (AsP) ([8]; (+DHQ)-plants): increased more significantly; ratio between TBARs content and AsP activity ([8]; leaves, optimal soil conditions and flooding): lower; germination rate in comparison with the same seeds soaked in water [8, 12]: twofold; mold on seeds [8, 12]: no mold; root growth ([8]; seedlings from pretreated seeds vs non-pretreated): higher; shoot growth ([8]; seedlings from similarly germinated seeds, with vs without pretreatment): did not differ; TBARs content ([8]; soil flooding, roots and leaves, (+DHQ) vs (-DHQ) seedlings): lower; increase in dihydrotlavonol 4-reductase (DFR) activity [9]: 10 fold; oxygen consumption of white potato tissue [10]: stimulated; active and passive transport systems of the vacuolar membrane [11]: affected; effect on the membranes of isolated vacuoles ([11]; isolated vacuoles): strong stabilizing effect
5 | C[C@@H]1O[C@@H](O[C@H]2[C@H](Oc3cc(O)c4c(c3)O[C@H](c3ccc(O)cc3)CC4=O)O[C@H](CO)[C@@H](O)[C@@H]2O)[C@H](O)[C@H](O)[C@H]1O [naringin] | increased | – | – | – | – | – | – | –
6 | O=c1c(O)c(-c2ccc(O)cc2O)oc2cc(O)cc(O)c12 [morin] | increased | – | – | – | – | – | – | –

— US20140335210A1, “METHOD AND AGROCHEMICAL COMPOSITION FOR USING LARCH WOOD EXTRACTS IN AGRICULTURE” (FLAVITPURE, INC., priority 2013, published 2014)
